Data from the RepoRT retention time repository.

Test: HILIC, HILICON iHILIC-(P) Classic, HILIC, PEEK, 50 × 2.1 mm, 5 µm, 30 °C, 0.12 mL/min, estimated dead time 0.92 min; A: water + 20 mM ammonium carbonate + 10 mM ammonium hydroxide; B: acetonitrile; gradient (min/%B) 0/90 1/90 21/20 21.5/20 23.5/20 24.5/90 26/90 26.5/90
Conditions: stereoisomer not certain

Row | LC retention time [min] | SMILES
1 | 12.3 | Nc1ncnc2c1ncn2C1OC(COP(=O)(O)OP(=O)(O)O)C(O)C1O (stereo not drawn) [ADP]
2 | 8.72 | Nc1ncnc2c1ncn2C1OC(COP(=O)(O)O)C(O)C1O (stereo not drawn) [AMP]
3 | 13.5 | Nc1ncnc2c1ncn2C1OC(COP(=O)(O)OP(=O)(O)OP(=O)(O)O)C(O)C1O (stereo not drawn) [ATP]
4 | 8.53 | CC(=O)SCCNC(=O)CCNC(=O)C(O)C(C)(C)COP(=O)(O)OP(=O)(O)OCC1OC(n2cnc3c(N)ncnc32)C(O)C1OP(=O)(O)O (stereo not drawn) [Acetyl-CoA]
5 | 3.45 | Nc1ncnc2nc[nH]c12 [Adenine]
6 | 3.59 | Nc1ncnc2c1ncn2C1OC(CO)C(O)C1O (stereo not drawn) [Adenosine]
7 | 9.17 | O=C1OC(C(O)CO)C(O)=C1O (stereo not drawn) [Ascorbic Acid]
8 | 10.7 | NC(=O)CC(N)C(=O)O (stereo not drawn) [Asparagine]
9 | 3.27 | O=C(O)CCCCC1SCC2NC(=O)NC21 (stereo not drawn) [Biotin]
10 | 13.2 | Nc1ccn(C2OC(COP(=O)(O)OP(=O)(O)O)C(O)C2O)c(=O)n1 (stereo not drawn) [CDP]
11 | 11.1 | Nc1ccn(C2OC(COP(=O)(O)O)C(O)C2O)c(=O)n1 (stereo not drawn) [CMP]
12 | 16.6 | O=C(O)CC(O)(CC(=O)O)C(=O)O [Citric acid]
13 | 11.6 | NC(CSSCC(N)C(=O)O)C(=O)O (stereo not drawn) [Cystine]
14 | 5.88 | Nc1ccn(C2OC(CO)C(O)C2O)c(=O)n1 (stereo not drawn) [Cytidine]
15 | 14.3 | Nc1nc2ncc(CNc3ccc(C(=O)NC(CCC(=O)O)C(=O)O)cc3)nc2c(=O)[nH]1 (stereo not drawn) [Folic Acid]
16 | 16 | O=P(O)(O)OCC1OC(O)(COP(=O)(O)O)C(O)C1O (stereo not drawn) [Fructose-1,6-bisphosphate]
17 | 14.8 | Nc1nc2c(ncn2C2OC(COP(=O)(O)OP(=O)(O)O)C(O)C2O)c(=O)[nH]1 (stereo not drawn) [GDP]
18 | 14.2 | Nc1nc2c(ncn2C2OC(COP(=O)(O)O)C(O)C2O)c(=O)[nH]1 (stereo not drawn) [GMP]
19 | 8.79 | NC(CCC(=O)NC(CS)C(=O)NCC(=O)O)C(=O)O (stereo not drawn) [GSH]
20 | 15.4 | NC(CCC(=O)NC(CSSCC(NC(=O)CCC(N)C(=O)O)C(=O)NCC(=O)O)C(=O)NCC(=O)O)C(=O)O (stereo not drawn) [GSSG]

Row | LC retention time [min] | SMILES
21 | 17 | Nc1nc2c(ncn2C2OC(COP(=O)(O)OP(=O)(O)OP(=O)(O)O)C(O)C2O)c(=O)[nH]1 (stereo not drawn) [GTP]
22 | 9.84 | NC(CCC(=O)O)C(=O)O (stereo not drawn) [Glutamic acid]
23 | 8.38 | NC(=O)CCC(N)C(=O)O (stereo not drawn) [Glutamine]
24 | 10.9 | O=P(O)(O)OCC(O)CO (stereo not drawn) [Glycerol-3-phosphate]
25 | 6.51 | Nc1nc2c(ncn2C2OC(CO)C(O)C2O)c(=O)[nH]1 (stereo not drawn) [Guanosine]
26 | 16.1 | O=C(O)CC(C(=O)O)C(O)C(=O)O (stereo not drawn) [Isocitric acid]
27 | 5.8 | CCC(C)C(N)C(=O)O (stereo not drawn) [Isoleucine]
28 | 3.24 | CC(O)C(=O)O (stereo not drawn) [Lactic Acid]
29 | 5.52 | CC(C)CC(N)C(=O)O (stereo not drawn) [Leucine]
30 | 18.8 | NCCCCC(N)C(=O)O (stereo not drawn) [Lysine]
31 | 12.9 | O=C(O)CC(O)C(=O)O (stereo not drawn) [Malic Acid]
32 | 9.18 | O=C(O)CC(=O)O [Malonic Acid]
33 | 5.98 | CSCCC(N)C(=O)O (stereo not drawn) [Methionine]
34 | 9.45 | CC(=O)NC(CC(=O)O)C(=O)O (stereo not drawn) [N-Acetylaspartic acid]
35 | 9.31 | NC(=O)C1=CN(C2OC(COP(=O)(O)OP(=O)(O)OCC3OC(n4cnc5c(N)ncnc54)C(O)C3O)C(O)C2O)C=CC1 (stereo not drawn) [NADH]
36 | 16.9 | NC(=O)C1=CN(C2OC(COP(=O)(O)OP(=O)(O)OCC3OC(n4cnc5c(N)ncnc54)C(OP(=O)(O)O)C3O)C(O)C2O)C=CC1 (stereo not drawn) [NADPH]
37 | 13.4 | NC(=O)c1ccc[n+](C2OC(COP(=O)(O)OP(=O)(O)OCC3OC(n4cnc5c(N)ncnc54)C(OP(=O)(O)O)C3O)C(O)C2O)c1 (stereo not drawn) [NADP]
38 | 9.03 | NC(=O)c1ccc[n+](C2OC(COP(=O)(O)OP(=O)(O)OCC3OC(n4cnc5c(N)ncnc54)C(O)C3O)C(O)C2O)c1 (stereo not drawn) [NAD]
39 | 9.92 | NC(=O)c1ccc[n+](C2OC(COP(=O)([O-])O)C(O)C2O)c1 (stereo not drawn) [NMN]
40 | 2.38 | O=C(O)c1cccnc1 [Nicotinic acid]

Row | LC retention time [min] | SMILES
41 | 18.1 | NCCCC(N)C(=O)O (stereo not drawn) [Ornithine]
42 | 13.7 | C=C(OP(=O)(O)O)C(=O)O [PEP]
43 | 5.17 | NC(Cc1ccccc1)C(=O)O (stereo not drawn) [Phenylalanine]
44 | 13.6 | O=C(O)C(CO)OP(=O)(O)O (stereo not drawn) [Phosphoglyceric acid A]
45 | 6.54 | O=C(O)C1CCCN1 (stereo not drawn) [Proline]
46 | 6.61 | O=C(O)C1(O)CC(O)C(O)C(O)C1 (stereo not drawn) [Quinic Acid]
47 | 8.67 | NC(CO)C(=O)O (stereo not drawn) [Serine]
48 | 11.6 | O=C(O)CCC(=O)O [Succinic Acid]
49 | 12.8 | Cc1ncc(C[n+]2csc(CCO)c2C)c(N)n1 [Thiamine]
50 | 8.21 | CC(O)C(N)C(=O)O (stereo not drawn) [Threonine]
51 | 10.9 | O=C(CO)COP(=O)(O)O [Triose phosphate]
52 | 6.14 | NC(Cc1c[nH]c2ccccc12)C(=O)O (stereo not drawn) [Tryptophan]
53 | 6.96 | NC(Cc1ccc(O)cc1)C(=O)O (stereo not drawn) [Tyrosine]
54 | 11.9 | CC(=O)NC1C(OP(=O)(O)OP(=O)(O)OCC2OC(n3ccc(=O)[nH]c3=O)C(O)C2O)OC(CO)C(O)C1O (stereo not drawn) [UDP-GlcNAc]
55 | 12.3 | O=c1ccn(C2OC(COP(=O)(O)OP(=O)(O)O)C(O)C2O)c(=O)[nH]1 (stereo not drawn) [UDP]
56 | 9.35 | O=c1ccn(C2OC(COP(=O)(O)O)C(O)C2O)c(=O)[nH]1 (stereo not drawn) [UMP]
57 | 14.2 | O=c1ccn(C2OC(COP(=O)(O)OP(=O)(O)OP(=O)(O)O)C(O)C2O)c(=O)[nH]1 (stereo not drawn) [UTP]
58 | 6.3 | CC(C)C(N)C(=O)O (stereo not drawn) [Valine]
